Usually relative IC50 stands for the concentration halfway between the upper and lower plateau of the fitted curve.

Assay in all cases: relative IC50 (inflection point of fitted viability curve, relative to fitted max inhibition); higher = less sensitive
What all share (conditions): 72 h

One experiment has as its system DERL-7 (IL-2 2.5 ng/mL). The procedure: (§1)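 Drug sensitivity and resistance testing: 5 concentrations over a 10,000-fold range, 72 h at 37 °C, viability by CellTiter-Glo normalised to DMSO and benzethonium chloride controls. IC50 is the inflection point of a logistic fit (min fixed at 0, max fitted), so it is relative to the fitted maximal inhibition. Kept only where fitted max inhibition is at least 50%.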

The next experiment deals with IMC-1 (IL-2 20 ng/mL). The procedure:
as §1

In the next experiment the test system is KAI3 (IL-2 2.5 ng/mL). The procedure:
as §1

The test system of another experiment is KHYG-1 (IL-2 2.5 ng/mL). How it is done: as §1
A further experiment has as its system NK-92 (IL-2 2.5 ng/mL). The procedure:
as §1

A further experiment relates to NK-YS (IL-2 2.5 ng/mL). How it is done: as §1
The next experiment relates to NKL (IL-2 2.5 ng/mL). The procedure:
as §1

The next experiment relates to SNK-6 (IL-2 2.5 ng/mL). How it is done: as §1
For another experiment, the system named is YT (IL-2 2.5 ng/mL). The procedure: as §1
Experiment [1] deals with normal primary NK cells, pool 1 (3 donors) (IL-2 2.5 ng/mL). The procedure:
as §1

Experiment [2] concerns normal primary NK cells, pool 2 (3 donors) (IL-2 2.5 ng/mL). The procedure: as §1
Experiment [3] deals with normal primary NK cells, pool 3 (3 donors) (IL-2 2.5 ng/mL). How it is done:
as §1

In experiment [4] the test system is normal primary NK cells, pool 1 (3 donors), resting (IL-2 0 ng/mL). How it is done: as §1

For the molecule `Cc1cc(Nc2cc(CN3CCOCC3)c3nc(C)c(Cc4ccc(Cl)cc4F)n3n2)n[nH]1` [Gandotinib], the “relative IC50” value in the experiment on DERL-7 (IL-2 2.5 ng/mL) came out at 0.163 µM; with IMC-1 (IL-2 20 ng/mL), 1.26 µM; in the experiment on KAI3 (IL-2 2.5 ng/mL), 0.0896 µM; in the experiment with KHYG-1 (IL-2 2.5 ng/mL) it was 0.107 µM; with NK-92 (IL-2 2.5 ng/mL), 0.236 µM; in the experiment on NK-YS (IL-2 2.5 ng/mL), 0.26 µM. Besides, the “relative IC50” value in the experiment with NKL (IL-2 2.5 ng/mL) was found to be 0.075 µM; in the experiment on SNK-6 (IL-2 2.5 ng/mL), 0.23 µM; in the experiment on YT (IL-2 2.5 ng/mL) it was 0.448 µM; in experiment [1] it was 0.362 µM; in experiment [2], 0.183 µM; in experiment [3] it was 0.669 µM.
Turning to `NCC(=O)Nc1ccc(-n2nc(C(F)(F)F)cc2-c2ccc3c(ccc4ccccc43)c2)cc1`, the “relative IC50” value is 4.37 µM with IMC-1 (IL-2 20 ng/mL); 4.9 µM with KAI3 (IL-2 2.5 ng/mL); 1.31 µM in the experiment on KHYG-1 (IL-2 2.5 ng/mL); 4.95 µM in the experiment with NK-92 (IL-2 2.5 ng/mL); 1.98 µM in the experiment on NK-YS (IL-2 2.5 ng/mL); 4.07 µM in the experiment with NKL (IL-2 2.5 ng/mL). Also, the “relative IC50” value worked out at 3.81 µM with SNK-6 (IL-2 2.5 ng/mL), 5.54 µM in the experiment with YT (IL-2 2.5 ng/mL), 7.2 µM in experiment [2] and 7.23 µM in experiment [3].
As for `O=C(Nc1ccncc1)C(=O)c1cn(Cc2ccc(Cl)cc2)c2ccccc12` [Indibulin], the “relative IC50” value with DERL-7 (IL-2 2.5 ng/mL) is 0.922 µM; in the experiment with IMC-1 (IL-2 20 ng/mL) it was 0.339 µM; in the experiment on KAI3 (IL-2 2.5 ng/mL), 0.045 µM; in the experiment on KHYG-1 (IL-2 2.5 ng/mL) it was 0.103 µM; in the experiment with NK-92 (IL-2 2.5 ng/mL), 0.0485 µM; with NK-YS (IL-2 2.5 ng/mL) it was 0.0777 µM. Besides, the “relative IC50” value in the experiment on NKL (IL-2 2.5 ng/mL) is 0.0856 µM; in the experiment on SNK-6 (IL-2 2.5 ng/mL) it was 0.00297 µM; in the experiment on YT (IL-2 2.5 ng/mL), 0.131 µM; in experiment [1] it was over 10 µM.
Regarding `CCOc1cc2ncc(C#N)c(Nc3ccc(OCc4ccccn4)c(Cl)c3)c2cc1NC(=O)/C=C/CN(C)C` [Neratinib], the results for the “relative IC50” value (in the experiment with DERL-7 (IL-2 2.5 ng/mL); in the experiment on NK-92 (IL-2 2.5 ng/mL); in [4]) were 0.216 µM, 0.206 µM and 0.364 µM, respectively.
With `O=C1NC(=O)/C(=C/c2ccc3nccc(-c4ccncc4)c3c2)S1`, the “relative IC50” value in the experiment with DERL-7 (IL-2 2.5 ng/mL) stood at 0.543 µM; in the experiment with KAI3 (IL-2 2.5 ng/mL) it was 0.846 µM; in the experiment on KHYG-1 (IL-2 2.5 ng/mL), 0.681 µM; in the experiment on NK-92 (IL-2 2.5 ng/mL), 1.2 µM; in the experiment on NK-YS (IL-2 2.5 ng/mL), 0.81 µM; in the experiment with NKL (IL-2 2.5 ng/mL), 0.644 µM. Moreover, the “relative IC50” value in the experiment on SNK-6 (IL-2 2.5 ng/mL) stood at 1.1 µM; with YT (IL-2 2.5 ng/mL), 0.529 µM; in experiment [1] it was 0.749 µM; in experiment [4] it was 0.116 µM; in experiment [2], 1.25 µM; in experiment [3], 1.65 µM.
For the molecule `C[C@H]1C[C@@H]2[C@H]([C@@H](O)C[C@@]3(C)[C@H]2CC[C@]3(O)C(=O)CO)[C@@]2(C)C=CC(=O)C=C12` [Methylprednisolone], the “relative IC50” value in the experiment with DERL-7 (IL-2 2.5 ng/mL) is 0.0221 µM; with IMC-1 (IL-2 20 ng/mL), over 10 µM; with KHYG-1 (IL-2 2.5 ng/mL), 0.197 µM; in the experiment with NKL (IL-2 2.5 ng/mL), 0.0133 µM; in the experiment on YT (IL-2 2.5 ng/mL), 0.164 µM; in experiment [1], 0.0334 µM. Besides, the “relative IC50” value in [4] was 0.00966 µM; in experiment [2] it was 0.0417 µM; in experiment [3], 0.0888 µM.
In the case of `Cn1cc(C2=Nc3cc(NC(=O)C(N)C4CCCCC4)cc4c3C2=CNNC4=O)cn1` (configuration not stated), the “relative IC50” value amounted to 1 µM in the experiment with DERL-7 (IL-2 2.5 ng/mL); 0.259 µM in the experiment on IMC-1 (IL-2 20 ng/mL); 0.215 µM in the experiment on KAI3 (IL-2 2.5 ng/mL); 0.134 µM in the experiment on KHYG-1 (IL-2 2.5 ng/mL); 0.505 µM in the experiment on NK-92 (IL-2 2.5 ng/mL); 0.442 µM in the experiment on NK-YS (IL-2 2.5 ng/mL). For the same molecule, the “relative IC50” value with NKL (IL-2 2.5 ng/mL) was determined as 0.652 µM; with SNK-6 (IL-2 2.5 ng/mL), 0.238 µM; with YT (IL-2 2.5 ng/mL) it was 0.492 µM; in experiment [1], 3.52 µM; in experiment [2], 2.37 µM; in experiment [3], 1.96 µM.
`COCC1(CO)C(=O)C2CCN1CC2` (configuration not stated) [APR-246]: the “relative IC50” value in experiment [1] was determined as 0.566 µM; in experiment [4], 0.277 µM; in experiment [2], 0.393 µM; in experiment [3], 0.442 µM.
On to `CC(=O)N(O)CCCCCNC(=O)CCC(=O)N(O)CCCCCNC(=O)CCC(=O)N(O)CCCCCN` [Deferoxamine], for which the figures for the “relative IC50” value (in the experiment with IMC-1 (IL-2 20 ng/mL); in [3]) were 3.21 µM and 1.58 µM, respectively.
For `CN(C)C(=O)c1cc2cnc(Nc3ccc(N4CCNCC4)cn3)nc2n1C1CCCC1` [NVP-LEE011], the “relative IC50” value in the experiment with KHYG-1 (IL-2 2.5 ng/mL) was 1.06 µM; in experiment [1] it was 2.2 µM; in [4], 0.63 µM.
Turning to `NC(=O)c1ccc(I)c([N+](=O)[O-])c1` [Iniparib], the “relative IC50” value in [1] came out at 1.62 µM; in [4], 1.36 µM.
On to `COc1cc2c(Nc3ccc(Cl)c(Cl)c3F)ncnc2cc1OC[C@@H]1C[C@@H]2CN(C)C[C@@H]2C1` [XL-647], for which the “relative IC50” value with NK-92 (IL-2 2.5 ng/mL) was 0.183 µM; with NKL (IL-2 2.5 ng/mL) it was 0.133 µM; in [4] it was 0.157 µM.
For the molecule `Cc1ccc2nc(CN(CCN(Cc3nc4ccc(C)cc4[nH]3)Cc3nc4ccc(C)cc4[nH]3)Cc3nc4ccc(C)cc4[nH]3)[nH]c2c1`, the “relative IC50” value came to 8.27 µM with DERL-7 (IL-2 2.5 ng/mL); 8.64 µM in the experiment on IMC-1 (IL-2 20 ng/mL); 3.47 µM in the experiment on KAI3 (IL-2 2.5 ng/mL); 6.25 µM with KHYG-1 (IL-2 2.5 ng/mL); 3.9 µM with NK-92 (IL-2 2.5 ng/mL); 8.98 µM with NK-YS (IL-2 2.5 ng/mL). Also, the “relative IC50” value with NKL (IL-2 2.5 ng/mL) was 2.16 µM; with SNK-6 (IL-2 2.5 ng/mL), 18.2 µM; with YT (IL-2 2.5 ng/mL), 7.07 µM; in experiment [1] it was 7.65 µM; in experiment [4], 8.02 µM.
Take `COc1cc2c(cc1O)CC[C@@H]1[C@@H]2CC[C@]2(C)[C@@H](O)CC[C@@H]12` [2-methoxyestradiol]: the “relative IC50” value in the experiment on DERL-7 (IL-2 2.5 ng/mL) is 0.589 µM; in the experiment with IMC-1 (IL-2 20 ng/mL), 0.791 µM; in the experiment on KAI3 (IL-2 2.5 ng/mL), 0.442 µM; with KHYG-1 (IL-2 2.5 ng/mL), 0.319 µM; with NK-92 (IL-2 2.5 ng/mL), 0.153 µM; in the experiment with NK-YS (IL-2 2.5 ng/mL), 0.26 µM. The “relative IC50” value was 0.243 µM with NKL (IL-2 2.5 ng/mL), 0.263 µM in the experiment with SNK-6 (IL-2 2.5 ng/mL) and 0.373 µM with YT (IL-2 2.5 ng/mL).

(Values after the supplement of paper PMC5908809.)
